Literature values as cited in article PMC8513935.

Key:
[1] = experimental, compiled by the authors from the literature (the ESI cites the sources)
[2] = derived by the authors as gas->solvent minus gas->water (a hypothetical dry solvent; the ESI), not a two-phase measurement
[3] = log P octanol/water from commercial databases, averaged (the ESI); conditions: Octanol (wet), 25 C

| Compound | log K of transfer, gas to solvent ([1]; 1,2-Dichloroethane, 25 C) | log K of transfer, gas to solvent ([1]; 2-Methylpropan-2-ol, 25 C) | log K of transfer, gas to solvent ([1]; Benzene, 25 C) | log K of transfer, gas to solvent ([1]; CCl4, 25 C) | log K of transfer, gas to solvent ([1]; Chlorobenzene, 25 C) | log K of transfer, gas to solvent ([1]; Chloroform, 25 C) | log K of transfer, gas to solvent ([1]; Cyclohexane, 25 C) | log K of transfer, gas to solvent ([1]; Decan-1-ol, 25 C) | log K of transfer, gas to solvent ([1]; Hexadecane, 25 C) | log K of transfer, gas to solvent ([1]; Hexan-1-ol, 25 C) | log K of transfer, gas to solvent ([1]; Hexane, 25 C) | log K of transfer, gas to solvent ([1]; Methanol, 25 C) | log K of transfer, gas to solvent ([1]; Octan-1-ol, 25 C) | log K of transfer, gas to solvent ([1]; Water, 25 C) | log K of transfer, water to solvent ([2]; CCl4, 25 C) | log K of transfer, water to solvent ([2]; Chloroform, 25 C) | log K of transfer, water to solvent ([2]; Decan-1-ol, 25 C) | log K of transfer, water to solvent ([2]; Hexadecane, 25 C) | log K of transfer, water to solvent ([2]; Hexane, 25 C) | log K of transfer, water to solvent [3] | further results |
| --- | --- | --- | --- | --- | --- | --- | --- | --- | --- | --- | --- | --- | --- | --- | --- | --- | --- | --- | --- | --- | --- |
| CCCCCO | 4.07 log10 K | 5.1 log10 K | 3.74 log10 K | 3.75 log10 K | 3.85 log10 K | 4.4 log10 K | 2.94 log10 K | 4.68 log10 K | 3.1 log10 K | 4.9 log10 K | 3.39 log10 K | 4.93 log10 K | 4.69 log10 K | 3.35 log10 K | 0.4 log10 K | 1.05 log10 K | 1.33 log10 K | -0.244 log10 K | 0.037 log10 K | 1.51 log10 K | log K of transfer, gas to solvent ([1]; 2-Methylpropan-1-ol, 25 C): 5.02 log10 K; log K of transfer, gas to solvent ([1]; Butan-1-ol, 25 C): 4.96 log10 K; log K of transfer, gas to solvent ([1]; Pentan-1-ol, 25 C): 4.95 log10 K; log K of transfer, gas to solvent ([1]; Propan-1-ol, 25 C): 4.97 log10 K; log K of transfer, gas to solvent ([1]; Propan-2-ol, 25 C): 5.01 log10 K; log K of transfer, gas to solvent ([1]; Toluene, 25 C): 3.79 log10 K; log K of transfer, water to solvent ([2]; 1,2-Dichloroethane, 25 C): 0.72 log10 K; log K of transfer, water to solvent ([2]; 2-Methylpropan-1-ol, 25 C): 1.67 log10 K; log K of transfer, water to solvent ([2]; 2-Methylpropan-2-ol, 25 C): 1.75 log10 K; log K of transfer, water to solvent ([2]; Benzene, 25 C): 0.39 log10 K; log K of transfer, water to solvent ([2]; Butan-1-ol, 25 C): 1.61 log10 K; log K of transfer, water to solvent ([2]; Chlorobenzene, 25 C): 0.5 log10 K; log K of transfer, water to solvent ([2]; Cyclohexane, 25 C): -0.411 log10 K; log K of transfer, water to solvent ([2]; Hexan-1-ol, 25 C): 1.55 log10 K; log K of transfer, water to solvent ([2]; Methanol, 25 C): 1.58 log10 K; log K of transfer, water to solvent ([2]; Octan-1-ol(dry), 25 C): 1.34 log10 K; log K of transfer, water to solvent ([2]; Pentan-1-ol, 25 C): 1.6 log10 K; log K of transfer, water to solvent ([2]; Propan-1-ol, 25 C): 1.62 log10 K; log K of transfer, water to solvent ([2]; Propan-2-ol, 25 C): 1.66 log10 K; log K of transfer, water to solvent ([2]; Toluene, 25 C): 0.44 log10 K |
| CCCCCCCCCCO | – | – | – | – | – | – | – | 7.03 log10 K | 5.61 log10 K | – | 5.64 log10 K | – | – | 2.67 log10 K | – | – | 4.36 log10 K | 2.94 log10 K | 2.97 log10 K | 4.12 log10 K | log K of transfer, gas to solvent ([1]; Propan-1-ol, 25 C): 7.13 log10 K; log K of transfer, gas to solvent ([1]; Propan-2-ol, 25 C): 7.16 log10 K; log K of transfer, water to solvent ([2]; Propan-1-ol, 25 C): 4.46 log10 K; log K of transfer, water to solvent ([2]; Propan-2-ol, 25 C): 4.49 log10 K |
| CCCCCCCO | 4.98 log10 K | – | 5.02 log10 K | 4.66 log10 K | 4.95 log10 K | 5.5 log10 K | 4.18 log10 K | – | 4.11 log10 K | 5.92 log10 K | 4.1 log10 K | 5.57 log10 K | – | 3.09 log10 K | 1.57 log10 K | 2.41 log10 K | – | 1.02 log10 K | 1.01 log10 K | 2.62 log10 K | log K of transfer, gas to solvent ([1]; Butyronitrile, 25 C): 5.33 log10 K; log K of transfer, gas to solvent ([1]; Heptan-1-ol, 25 C): 5.8 log10 K; log K of transfer, gas to solvent ([1]; Toluene, 25 C): 4.95 log10 K; log K of transfer, water to solvent ([2]; 1,2-Dichloroethane, 25 C): 1.89 log10 K; log K of transfer, water to solvent ([2]; Benzene, 25 C): 1.93 log10 K; log K of transfer, water to solvent ([2]; Butyronitrile, 25 C): 2.24 log10 K; log K of transfer, water to solvent ([2]; Chlorobenzene, 25 C): 1.86 log10 K; log K of transfer, water to solvent ([2]; Cyclohexane, 25 C): 1.09 log10 K; log K of transfer, water to solvent ([2]; Heptan-1-ol, 25 C): 2.71 log10 K; log K of transfer, water to solvent ([2]; Hexan-1-ol, 25 C): 2.83 log10 K; log K of transfer, water to solvent ([2]; Methanol, 25 C): 2.48 log10 K; log K of transfer, water to solvent ([2]; Toluene, 25 C): 1.86 log10 K |
| C=CCCCCC | – | – | – | – | – | – | – | – | 3.06 log10 K | – | – | – | – | -1.22 log10 K | – | – | – | 4.28 log10 K | – | 3.99 log10 K | log K of transfer, gas to solvent ([1]; Butyronitrile, 25 C): 2.87 log10 K; log K of transfer, gas to solvent ([1]; Pentan-1-ol, 25 C): 2.88 log10 K; log K of transfer, gas to solvent ([1]; Propionitrile, 25 C): 2.78 log10 K; log K of transfer, water to solvent ([2]; Butyronitrile, 25 C): 4.09 log10 K; log K of transfer, water to solvent ([2]; Pentan-1-ol, 25 C): 4.1 log10 K; log K of transfer, water to solvent ([2]; Propionitrile, 25 C): 4 log10 K |
| OC1CCCCC1 | – | – | – | – | – | 5.13 log10 K | – | 5.48 log10 K | 3.76 log10 K | – | – | – | 5.18 log10 K | 4.01 log10 K | – | 1.12 log10 K | 1.48 log10 K | -0.252 log10 K | – | 1.23 log10 K | log K of transfer, gas to solvent ([1]; Propanone, 25 C): 5.09 log10 K; log K of transfer, water to solvent ([2]; Acetone, 25 C): 1.08 log10 K; log K of transfer, water to solvent ([2]; Octan-1-ol(dry), 25 C): 1.17 log10 K |
| CC=C(C)C | – | 2.36 log10 K | – | 2.38 log10 K | – | – | – | – | 2.23 log10 K | – | – | – | – | -0.96 log10 K | 3.34 log10 K | – | – | 3.19 log10 K | – | 2.67 log10 K | log K of transfer, gas to solvent ([1]; Cyclohexanone, 25 C): 2.26 log10 K; log K of transfer, water to solvent ([2]; 2-Methylpropan-2-ol, 25 C): 3.32 log10 K; log K of transfer, water to solvent ([2]; Cyclohexanone, 25 C): 3.22 log10 K |
